Results from patent US20100093862A1, “POTENTIATION OF CELLULAR IMMUNITY USING HISTONE DEACETYLASE (HDAC) INHIBITORS” (Sapporo Medical Univeristy and Japan Science and Technology …, priority 2006, published 2010).

How the values were obtained:
[1] = test system: MCF-7 cells; experiment: Western blot of intracellular B2M, HLA class I heavy chain and actin, MCF-7 cells; assay type: cell-based, human; settings: TSA 100 nM, 24 hours
Procedure: (§1) (1) Using the same cells as those in the example 1, MCF-7 cells and HMC-1 cells were cultured in the presence of TSA, a HDAC inhibitor, (100 nM) for 24 hours respectively, followed by harvesting them. (2) 1×10^6 cells are lysed in […] cell lysate (RIPA buffer) and a soluble fraction is harvested as a lysate. SDS sample buffer was added to the lysate. (3) The protein samples were loaded on 7.5% SDS polyacrylamide gel and electrophoresed. (4) The proteins in the gel were transferred on a PVDF membrane (Millipore). (5) The transferred membrane was immersed in 5% skim milk in PBS and blocked for about one hour. (6) The transferred membrane was immersed in a primary antibody (anti-pan-HLA class I heavy chain antibody EMR8-5 (Hokudo, Sapporo), or anti-B2M antibody EMRB6 (Hokudo, Sapporo), or anti-actin antibody (DAKO), and incubated for one hour at room temperature. (7) The transferred membrane was washed with a lavage PBS-T (0.05% Tween 20/PBS, pH7.4) three times. (8) The transferred membrane was immersed in a secondary antibody peroxidase-labeled anti-mouse IgG antibody (KPL, USA) and incubated for one hour at room temperature. (9) The transferred membrane was washed with a lavage PBS-T (0.05% Tween 20/PBS, pH7.4) three times. […] (11) Luminescent signals were detected by exposure to X ray film.

[2] = test system: HMC-1 cells; experiment: Flow cytometry of cell surface MHC class I antigen (W6/32 antibody), HMC-1 cells; assay type: cell-based, human; settings: vs non-treated
Procedure: (§2) Using the same cells as those in the examples 1 and 2, MCF-7 cells and HMC-1 cells were cultured for 24 hours in the presence of HDAC inhibitor TSA (100 nM) or for 48 hours in the presence of HDAC inhibitor VPA (4 mM), respectively, and the level of MHC class I antigen expressing on the cell surface was analyzed by a flow cytometer (Becton Dickinson).
(§3) (1) 1×10^6 cells were floated in […] PBS buffer, added a primary antibody (an antipan-HLA class I antibody W6/32 (Barnstable, C. J., Bodmer, W. J., Brown, G., Galfre, G., Milstein, C., Williams, A. F., and Zeigler, A. (1978) Cell 14, 9-20)) and incubated for 40 minutes at 4° C. (2) The cells were washed twice with PBS. (3) To the suspended cell was added a secondary antibody (FITC-labeled anti-mouse IgG antibody (IPL, USA)) and incubated for 40 minutes at 4° C. (4) The cells were washed twice with PBS, floated in PBS added with 1% formalin followed by analyzing FITC level of the cell surface by a flow cytometer.

[3] = test system: MCF-7 cells; experiment: Flow cytometry of cell surface MHC class I antigen (W6/32 antibody), MCF-7 cells; assay type: cell-based, human; settings: TSA 100 nM, 24 hours, vs non-treated
Procedure: as §2, §3

[4] = test system: HMC-1 cells; experiment: Western blot of intracellular B2M, HLA class I heavy chain and actin, HMC-1 cells; assay type: cell-based, human; settings: TSA 100 nM, 24 hours
Procedure: as §1

[5] = test system: MCF-7 cells; experiment: Chromatin immunoprecipitation with anti-acetylated histone H3 antibody and PCR of B2M gene, MCF-7 cells; assay type: cell-based, human; settings: 100 nM TSA, 24 hours
Procedure: (§4) Human breast cancer cell lines, that is, MCF-7 cells and HMC-1 cells were used to culture in the presence of 100 nM TSA (Sigma, USA) for 24 hours or 4 mM VPA (Sigma, USA) for 48 hours, respectively followed by extracting chromatin from the cells according to the manufacturer's instructions (Upstate Inc., USA) and immunoprecipitating the chromatin using anti-acetylated histone H3 antibody (Upstate Inc., USA) (see Assam El-Osta, et al. 2002. MOLECULAR AND CELLULAR BIOLOGY 22(6). p. 1844-1857). The genes binding to the acetylated histones were amplified by using PCR with the B2M gene-specific primers ([…] and […]), electrophoresed on 1% agarose gel followed by detecting with a transilluminator in the presence of ethidium bromide.

[6] = test system: class I and II HDAC; settings: Non-patent documents 5 and 6; cited from earlier work
[7] = test system: Papilloma virus persistent infection cells (HeLa cells); experiment: Flow cytometry of cell surface HLA class I, papilloma virus persistent infection cells; assay type: cell-based; settings: 4 mM valproic acid, 48 hours
Procedure: (§5) Papilloma virus persistent infection cells (HeLa cells) were cultured in 4 mM valproic acid-added culture medium (RPMI1640) or non additive culture medium for 48 hours, and reacted with an anti-pan-HLA class I antibody, W6/32 antibody and with FITC-labeled anti-mouse IgG antibody for 40 minutes respectively, and the cells were fixed in 0.1% formalin/PBS. The fluorescence intensities were measured by flow cytometer (FACS can, Beckton Dickinson).

[8] = test system: human breast cancer cell line MCF7 cells transplanted into SCID mice; experiment: Immunostaining of MCF7 tumor transplanted into SCID mice after oral VPA; assay type: in vivo; settings: SCID mouse, water containing 0.4% VPA for 10 days, vs control
Procedure: A human breast cancer cell line MCF7 cells were transplanted into SCID mice. […] One mouse was supplied with water containing 0.4% valproic acid (VPA, Sigma) for 10 days, and the other mouse was supplied with water with no additive as control. […] Following the method according to example 4, treatment of tissue slices as well as immunostaining with anti-HLA class I antibody (EMR8-5) and anti-B2M antibody (EMR-B6) were performed.

[9] = test system: HIV infection T cells (clone 8E5); experiment: Flow cytometry of cell surface HLA class I, HIV infection T cells; assay type: cell-based; settings: HIV infection T cells (8E5), 4 mM valproic acid, 48 hours
Procedure: as §5, with “HIV” for “Papilloma virus persistent”, “infection T” for “infection”, “(clone 8E5, purchased from ATCC)” for “(HeLa cells)”, “(FACScan,” for “(FACS can,”

[10] = test system: Measles virus persistent infection B cells (Raji-ZH cells); experiment: Flow cytometry of cell surface HLA class I, measles virus persistent infection B cells; assay type: cell-based; settings: 4 mM valproic acid, 48 hours
Procedure: as §5, with “Measles” for “Papilloma”, “infection B” for “infection”, “(Raji-ZH” for “(HeLa”, “(FACScan,” for “(FACS can,”

[11] = test system: EB virus persistent infection B cells (LG2EBV cells); experiment: Flow cytometry of cell surface HLA class I, EB virus persistent infection B cells; assay type: cell-based; settings: 4 mM valproic acid, 48 hours
Procedure: as §5, with “EB” for “Papilloma”, “infection B” for “infection”, “(LG2EBV” for “(HeLa”, “(FACScan,” for “(FACS can,”

[12] = test system: HMC-1 cells; experiment: Chromatin immunoprecipitation with anti-acetylated histone H3 antibody and PCR of B2M gene, HMC-1 cells; assay type: cell-based, human; settings: 4 mM VPA, 48 hours
Procedure: as §4

[13] = test system: Mumps virus persistent infection B cells (Akata-MP1 cells); experiment: Flow cytometry of cell surface HLA class I, mumps virus persistent infection B cells; assay type: cell-based; settings: 4 mM valproic acid, 48 hours
Procedure: as §5, with “Mumps” for “Papilloma”, “infection B” for “infection”, “(Akata-MP1” for “(HeLa”, “(FACScan,” for “(FACS can,”

Row | SMILES | expression level of intracellular HLA heavy chain and actin proteins [1] | level of intracellular B2M protein [1] | increase of MHC class I level of the cell surface ([2]; TSA 100 nM, 24 hours) | increase of MHC class I level of the cell surface [3] | expression level of intracellular HLA heavy chain and actin proteins [4] | level of intracellular B2M protein [4] | B2M gene detected in anti-acetylated histone H3 immunoprecipitate [5] | HDAC class selectivity [6] | increase of MHC class I level of the cell surface ([2]; VPA 4 mM, 48 hours) | HLA class I level on a cell surface [7] | expression level of B2M in tumor [8] | expression level of HLA class I antigen in tumor [8] | HLA class I level on a cell surface [9] | HLA class I level on a cell surface [10] | HLA class I level on a cell surface [11] | B2M gene detected in anti-acetylated histone H3 immunoprecipitate [12] | HLA class I level on a cell surface [13]
1 | CC(/C=C/C(=O)NO)=C\[C@@H](C)C(=O)c1ccc(N(C)C)cc1 [TSA, tricostatin A] | no great difference | remarkably increased | about 10 times | about 10 times | no great difference | remarkably increased | B2M gene was detected together with acetylated histones | inhibits class I and II HDAC |  |  |  |  |  |  |  |  | 
2 | CCCC(CCC)C(=O)O [VPA, valproic acid] |  |  |  |  |  |  |  | preferably inhibits class I MAC compared with class II HDAC | about 10 times | recovery of expression was observed | increased compared to control group | increased compared to control group | recovery of expression was observed | recovery of expression was observed | recovery of expression was observed | B2M gene was detected together with acetylated histones | recovery of expression was observed
